Results reported in US20080138837A1, “Methods and kits for detecting and measuring ADAMTS13/FXI complexes” (priority 2004, published 2008).
Numbered stars: 1 amine (or outer) side, 2 acyl side, 3 side chain; on linkers, the order of the positions; unused ones are H or OH. * marks the point of attachment. DABCYL = CN(C)c1ccc(/N=N/c2ccc(C(=O)*)cc2)cc1; EDANS = O=S(=O)(O)c1cccc2c(NCCN*)cccc12; AMC = Cc1cc(=O)oc2cc(N*)ccc12; Suc = O=C(CCC(=O)[*:2])[*:1]

Experiments:
ADAMTS13 = ADAMTS13 activity in PRP using peptidyl substrates; type: biochemical, human; conditions: 0.8 mM substrate, 37° C., FIG. 3
Method: (§1) Blood was collected by venopuncture into collection tubes containing 0.12 M sodium citrate, an anti-coagulant. The citrated blood was centrifuged at 700 rpm for 10 minutes. The supernatant was removed and saved as the platelet rich plasma (PRP) fraction. The PRP was centrifuged at 10,000 rpm for 20 minutes. The supernatant was removed and saved as the platelet poor plasma (PPP) fraction. The pellet contained the platelets, which were washed by resuspending in 10 mM Tris-HCl pH 8.0 buffer and centrifuging at 10,000 rpm for 10 minutes. The isolated platelets were resuspended in buffer and used in experiments.
As discussed above, Furlan et al. reported that some peptidyl-pNA moieties, such as XLY-pNA and XVY-pNA, were not substrates for ADAMTS13. We prepared LVY-pNA and tested it for its ability to be cleaved by ADAMTS13. The results shown in FIG. 2 confirm the findings of Furlan et al., i.e., LVY-pNA was not cleaved by ADAMTS13.
In order to determine the effect of modifying the length of the peptide sequence conjugated to the AMC fluorochrome, normal PRP (20 μl) was incubated at 37° C. with a final concentration of 0.8 mM Suc-LLVY-AMC or LVY-AMC in 10 mM Tris-HCl pH 8.0 buffer in total volume of 200 μl. Fluorescence was measured using a microtiter fluorophotometric plate reader (Ex 360 nm/Em 460 nm).

[1] = biological target: T1, recombinant ADAMTS13 (recADAMTS13) (Homo sapiens, UniProt Q76LX8); assay: Recombinant ADAMTS13 activity in tissue culture supernatants using fluorescent substrate; type: biochemical; conditions: 0.8 mM substrate, 50 mM Tris-HCl pH 8.0, FIG. 5
T1 construct: made in house; host or cells: HEK 293 cells; crude culture supernatant supplied by Dr. David Ginsburg, University of Michigan
T1 sequence (Q76LX8 75-1427): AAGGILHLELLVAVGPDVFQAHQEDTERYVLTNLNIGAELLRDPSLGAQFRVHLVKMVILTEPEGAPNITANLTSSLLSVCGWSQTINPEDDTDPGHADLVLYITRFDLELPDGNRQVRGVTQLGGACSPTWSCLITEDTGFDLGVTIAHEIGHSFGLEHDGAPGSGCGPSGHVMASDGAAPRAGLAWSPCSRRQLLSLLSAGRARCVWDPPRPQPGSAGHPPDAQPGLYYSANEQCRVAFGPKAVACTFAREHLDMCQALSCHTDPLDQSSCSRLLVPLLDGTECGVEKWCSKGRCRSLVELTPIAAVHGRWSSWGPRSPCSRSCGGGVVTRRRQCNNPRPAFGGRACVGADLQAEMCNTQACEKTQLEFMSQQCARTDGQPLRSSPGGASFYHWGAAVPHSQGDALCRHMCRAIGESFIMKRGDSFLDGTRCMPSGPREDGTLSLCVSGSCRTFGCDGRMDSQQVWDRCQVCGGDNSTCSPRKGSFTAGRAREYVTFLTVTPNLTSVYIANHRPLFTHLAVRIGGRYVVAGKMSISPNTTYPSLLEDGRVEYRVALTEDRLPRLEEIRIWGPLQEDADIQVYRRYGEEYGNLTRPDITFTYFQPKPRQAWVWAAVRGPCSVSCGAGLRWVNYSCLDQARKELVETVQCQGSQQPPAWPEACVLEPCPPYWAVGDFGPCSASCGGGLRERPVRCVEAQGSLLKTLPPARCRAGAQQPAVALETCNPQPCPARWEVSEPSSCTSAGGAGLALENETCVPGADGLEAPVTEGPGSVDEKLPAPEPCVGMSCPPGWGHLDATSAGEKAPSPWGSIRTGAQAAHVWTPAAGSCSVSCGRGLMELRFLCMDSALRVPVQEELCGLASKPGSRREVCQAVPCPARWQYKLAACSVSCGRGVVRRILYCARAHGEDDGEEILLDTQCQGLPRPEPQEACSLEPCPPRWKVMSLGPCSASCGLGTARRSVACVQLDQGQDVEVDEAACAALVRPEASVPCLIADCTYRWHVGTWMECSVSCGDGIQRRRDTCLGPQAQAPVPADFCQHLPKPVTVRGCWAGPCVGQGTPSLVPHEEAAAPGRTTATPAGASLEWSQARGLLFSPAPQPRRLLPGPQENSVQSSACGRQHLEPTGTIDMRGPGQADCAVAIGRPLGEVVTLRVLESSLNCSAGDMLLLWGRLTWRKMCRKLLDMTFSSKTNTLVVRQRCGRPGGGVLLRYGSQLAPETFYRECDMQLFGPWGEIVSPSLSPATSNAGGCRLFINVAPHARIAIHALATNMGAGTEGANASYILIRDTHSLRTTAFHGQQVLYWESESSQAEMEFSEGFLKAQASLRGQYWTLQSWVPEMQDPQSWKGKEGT
Source text: HEK 293 cells were transfected with a vector encoding ADAMTS13. Cell culture supernatant from the transfected HEK 293 cells, containing recombinant ADAMTS13, was generously provided by Dr. David Ginsburg (University of Michigan, Mich.). Mock transfected cell supernatant with no recombinant ADAMTS13 was also provided as a control.
Fluorescence signals were compared between tissue culture supernatant from HEK 293 cells transfected with a viral vector coding for recombinant ADAMTS13 (“recADAMTS13”) and supernatant from mock transfected HEK 293 cells, as a control. (Culture supernatants were supplied by Dr. David Ginsburg, University of Michigan.) Varying amounts of the two culture supernatants were added to 0.8 mM Suc-Leu-Leu-Val-Tyr-AMC (SEQ ID NO: 2) fluorescent substrate in 50 mM Tris-HCl pH 8.0 in a total volume of 100 μl.

[2] = test system: form of ADAMTS13 found on platelets; assay: ADAMTS13 activity on isolated platelets using a FRET substrate; type: biochemical, human; conditions: 8 μg/ml substrate, 37° C., Ex 360 nm/Em 440 nm, FIG. 4
Method: as §1
ADAMTS13 activity was measured using a fluorescent substrate attached to a donor moiety and an acceptor moiety that functions by fluorescence resonance energy transfer (FRET). The ADAMTS13 selective substrate, NH2-Arg-Lys(DABCYL)-NLVYMVTGD(EDANS)-Arg-COOH, was used in this example. […] The intact peptidyl substrate has low fluorescence, due to quenching of the […]. Cleavage of the substrate between the tyrosine and methionine of the peptide sequence results in an increase in fluorescence.
Isolated platelets in 10 mM Tris-HCl pH 8.0 assay buffer were incubated with a final concentration of 8 μg/ml of the FRET substrate at 37° C. The fluorescence was measured in a spectrofluorometric plate reader (Ex 360 nm/Em 440 nm). […]

human FXI = human FXI (Homo sapiens, UniProt P03951); assay: Binding of recombinant ADAMTS13 to FXI-coated plates (ELISA); conditions: FXI coated at 1 μg/ml, 1 hour, detection anti-ADAMTS13 TSP5-7 rabbit polyclonal, OD 450 nm, FIG. 22
Method: Binding of recADAMTS13 to immobilized FXI was measured using microplates coated with human FXI at a concentration of 1 μg/ml. RecADAMTS13 in solution was added to the FXI-coated microwells and incubated for 1 hour. ADAMTS13/FXI complexes were measured using ELISA. Specifically, after incubation with recADAMTS13, plates were washed with PBS +1% Tween, followed by incubation for 1 hour with anti-ADAMTS13 TSP5-7 rabbit polyclonal antibodies (1 μg/ml). Plates were washed again in PBS+1% Tween, followed by addition of a murine anti-rabbit IgG antibody conjugated to HRP. The detection antibody was incubated for an hour at room temperature. After washing the excess detection antibody from the plates, the TMB substrate was added, incubated for 10 minutes, after which 0.5 M sulfuric acid was added to terminate the reaction. The optical density of the mixture was measured at 450 nm on a spectrophotometer (FIG. 22).

ADAMTS13/FXI complexes = biological target: T2, ADAMTS13/FXI complexes (Homo sapiens, UniProt P03951+Q76LX8); assay: Formation of ADAMTS13/FXI complexes in FXI-deficient plasma after addition of FXI (ELISA); type: binding; conditions: FXI-deficient plasma diluted 1:8 in ECD, 30 minutes, FIG. 25
T2 construct: addition of FXI (Enzyme Research Lab, Canada) to FXI-deficient plasma diluted 1:8 in ECD; purchased Enzyme Research Lab, Canada; host or cells: FXI purchased; ADAMTS13 endogenous in plasma from patients with congenital FXI deficiency
Method: An assay was developed for measuring the presence of ADAMTS13/FXI complexes by ELISA analysis. A standard curve was generated using PNP (Saturn Biomedical), diluted 1:4 in ECD buffer (PBS/3% BSA/gentamicin), and then serially diluted 1:2 in ECD buffer. Assays were performed in duplicate, using 100 μl of each standard dilution in Immulon 4 HBX 96-well microtiter plates (ThermoLabsystems, Franklin, Mass.) that were coated with goat anti-human ADAMTS13 antibody raised against a synthetic peptide sequence in the CUB1 domain (SC21510; Santa Cruz Biotechnology, Santa Cruz, Calif.) at a concentration of 1 μg/ml in 3-(N-morpholino)propanesulfonate (MOPS) coating buffer (0.1 M MOPS, 0.15 M NaCl, 0.05 M CaCl2, 0.066 M Trehalose, 0.02% NaN3, pH 7.4). Microtiter plates were blocked with SuperBlock (Pierce Chemical Co., Indianapolis, Ind.).
Standards and diluted samples were incubated in coated microwells for 2 hours at room temperature, with mixing. […] The optical density of the mixture was then read in a spectrophotometer at 450 nm.
Formation of ADAMTS13/FXI complexes was measured after addition of FXI (Enzyme Research Lab, Canada) to FXI-deficient plasma diluted 1:8 in ECD. […] The plasma containing newly formed ADAMTS13/FXI complexes were then added to anti-ADAMTS13 antibody-coated microwells and quantified, as described in Example 16.

In the case of “Suc-Leu-Leu-Val-Tyr-AMC (Suc-LLVY-{AMC}; SMILES Cc1cc(=O)oc2cc(NC(=O)[C@H](Cc3ccc(O)cc3)NC(=O)[C@@H](NC(=O)[C@H](CC(C)C)NC(=O)[C@H](CC(C)C)NC(=O)CCC(=O)O)C(C)C)ccc12) [Suc-LLVY-AMC, fluorogenic peptidyl substrate from Bachem Bioscience Inc]”, the “cleavage of peptidyl-AMC substrate by ADAMTS13 in PRP” value (ADAMTS13; normal PRP 20 μl, 10 mM Tris-HCl pH 8.0, Ex 360 nm/Em 460 nm) is reported as “cleaved”, the “fluorescence signal over time as compared to the LVY-AMC substrate” value (ADAMTS13; normal PRP) is reported as “higher signal over time” and the “cleavage of fluorescent substrate by recADAMTS13 in supernatant of transfected HEK 293 cells versus mock” value [1] is reported as “cleavage of the substrate by recADAMTS13”.

“NH2-Arg-Lys-(DABCYL)-Asn-Leu-Val-Tyr-Met-Val-Thr-Gly-Asp-(EDANS)-Arg-COOH (H-RK(DABCYL)NLVYMVTGD(EDANS)R-OH; SMILES CSCC[C@H](NC(=O)[C@H](Cc1ccc(O)cc1)NC(=O)[C@@H](NC(=O)[C@H](CC(C)C)NC(=O)[C@H](CC(N)=O)NC(=O)[C@H](CCCCNC(=O)c1ccc(/N=N/c2ccc(N(C)C)cc2)cc1)NC(=O)[C@@H](N)CCCNC(=N)N)C(C)C)C(=O)N[C@H](C(=O)N[C@H](C(=O)NCC(=O)N[C@@H](CC(=O)NCCNc1cccc2c(S(=O)(=O)O)cccc12)C(=O)N[C@@H](CCCNC(=N)N)C(=O)O)[C@@H](C)O)C(C)C) [FRET substrate made for American Diagnostica Inc]” was tested, and the “fluorescence on incubation of platelets with FRET substrate (cleavage by platelet ADAMTS13)” value [2] was “increased fluorescence over time”.

In the case of “recADAMTS13: recombinant ADAMTS13 in culture supernatant of transfected HEK 293 cells”, the “complex formation with immobilized FXI” value (human FXI) is reported as “stable complex”.

In the case of “FXI: Factor XI zymogen (Enzyme Research Lab, Canada)”, the “ADAMTS13/FXI complexes formed upon addition of FXI” value (ADAMTS13/FXI complexes) is reported as “increasing amounts of ADAMTS13/FXI complexes were formed”.
